Measured values: patent EP3898610B1, “NOVEL AZA-HEXAPHENE ANTIBIOTIC COMPOUNDS” (Fondazione Istituto Insubrico di Ricerca per la Vita, priority 2018, dated 2020)
Values after ≈ are worked out from the molar mass of the structure shown.

Tests used:
Type in all cases: cell-based
L1400 S. aureus HA-MRSA = test: MIC, broth microdilution (CLSI); settings: Staphylococcus aureus, MRSA
Protocol: (§1) Antibacterial activity. […] Each bacterial strain was inoculated with 2-5×10^5 CFU/ml, Candida albicans with 10^4 CFU/ml. Cultures were incubated at 35°C in air. After 18-24 hours visual readings were performed and MICs (Minimal Inhibitory Concentrations) determined. The effect of 30% bovine serum was determined under the same experimental conditions. The strains used were clinical isolates or strains from American Type Culture Collection (ATCC).

L1730 S. haemolyticus = test: MIC, broth microdilution (CLSI)
Protocol: as §1

L559 E. faecalis = test: MIC, broth microdilution (CLSI); settings: Enterococcus faecalis
Protocol: as §1

L47 E. coli = test: MIC, broth microdilution (CLSI); settings: Escherichia coli
Protocol: as §1

L568 E. faecium = test: MIC, broth microdilution (CLSI); settings: Enterococcus faecium
Protocol: as §1

L819 S. aureus Smith = test: MIC, broth microdilution (CLSI); settings: Staphylococcus aureus
Protocol: as §1

L49 S. pyogenes C203 = test: MIC, broth microdilution (CLSI); settings: Streptococcus pyogenes
Protocol: as §1

[1] = tested on: L1729 S. haemolyticus MDR; test: MIC, broth microdilution (CLSI); settings: Staphylococcus haemolyticus
Protocol: as §1

L100 S. aureus ATCC6538P = test: MIC, broth microdilution (CLSI); settings: Staphylococcus aureus, ATCC6538P
Protocol: as §1

L560 E. faecalis VanA = test: MIC, broth microdilution (CLSI); settings: Enterococcus faecalis
Protocol: as §1

L3294 M. catarrhalis = test: MIC, broth microdilution (CLSI); settings: Moraxella catarrhalis
Protocol: as §1

L1577 S. epidermidis = test: MIC, broth microdilution (CLSI); settings: Staphylococcus epidermidis
Protocol: as §1

L44 S. pneumoniae = test: MIC, broth microdilution (CLSI); settings: Streptococcus pneumoniae
Protocol: as §1

L569 E. faecium VanA = test: MIC, broth microdilution (CLSI)
Protocol: as §1

L145 C. albicans = test: MIC, broth microdilution (CLSI); settings: Candida albicans
Protocol: Antibacterial activity. The antimicrobial activity of the antibiotic 103/33-F710 was determined by the broth microdilution method according to the procedures published by the Clinical and Laboratory Standards Institute (CLSI), formerly the National Committee for Clinical Laboratory Standards (NCCLS) (document M07-A9). Microorganisms were grown in either cation-adjusted Mueller Hinton Broth (Staphylococci, Enterococci, Moraxella catarrhalis, Escherichia coli), Todd Hewitt medium (Streptococci) or RPMI 1640 medium for Candida albicans on 96-well microtiter plates. Each bacterial strain was inoculated with 2-5×10^5 CFU/ml, Candida albicans with 10^4 CFU/ml. Cultures were incubated at 35°C in air. After 18-24 hours visual readings were performed and MICs (Minimal Inhibitory Concentrations) determined. The effect of 30% bovine serum was determined under the same experimental conditions. The strains used were clinical isolates or strains from American Type Culture Collection (ATCC). The antibiotic 103/33-F710 was dissolved in DMSO to obtain a 1000 µg/ml stock solution, and subsequently diluted in water to obtain working solution. Table 5: Antimicrobial activity reported as MIC (µg/ml) of ID103/33-F710
Antibacterial activity. The antimicrobial activity of the antibiotic 103/33-F696 was determined by the broth microdilution method according to the procedures disclosed in Example 7. Table 6: Antimicrobial activity reported as MIC (µg/ml) of compound 2 (103/33-F696)
Antibacterial activity. The antimicrobial activity of the antibiotic 103/33-F712 was determined by the broth microdilution method according to the procedures disclosed in Example 7. Table 7: Antimicrobial activity reported as MIC (µg/ml) of ID103/33-F712

[2] = tested on: L4061 S. aureus MRSA - GISA; test: MIC, broth microdilution (CLSI); settings: Staphylococcus aureus, MRSA
Protocol: as §1

[3] = tested on: VA80201 S. aureus CA-MRSA; test: MIC, broth microdilution (CLSI); settings: Staphylococcus aureus, MRSA
Protocol: as §1

[4] = tested on: VA8101 S. agalactiae (Group B); test: MIC, broth microdilution (CLSI); settings: Streptococcus agalactiae
Protocol: as §1

[5] = tested on: L4187 E. faecium VanA - Lnz R - Cpx R; test: microbe, parasite or virus in culture; settings: Enterococcus faecium
Protocol: as §1

SMILES | MIC (L1400 S. aureus HA-MRSA) | MIC (L559 E. faecalis) | MIC (L47 E. coli) | MIC (L568 E. faecium) | MIC (L819 S. aureus Smith) | MIC (L49 S. pyogenes C203) | MIC [1] | MIC (L100 S. aureus ATCC6538P) | MIC (L560 E. faecalis VanA) | MIC (L3294 M. catarrhalis) | MIC (L1577 S. epidermidis) | MIC (L44 S. pneumoniae) | MIC (L569 E. faecium VanA; Enterococcus faecium) | other results
COc1c(OC)c2c(=O)c3cc(C)n(C(CC4CN(C)C(=N)N4)C(=O)O)c(=O)c3c(=O)c2c2cc3c(=O)c4cc(O)cc(O)c4c(=O)c3c(O)c12 (centres unmarked) [compound 2, 2-(8,10,12-Trihydroxy-6,7-dimethoxy-3-methyl-1,5,9,14,16-pentaoxo-5,9,14,16-tetrahydro-1H-2-aza-hexaphen-2-yl)-3-(2-imino-1-methyl-imidazolidin-4-yl)-propionic acid] | 0.03 µg/mL (≈ 0.0431 µM) | 0.03 µg/mL (≈ 0.0431 µM) | > 512 µg/mL | 0.125 µg/mL (≈ 0.179 µM) | 0.015 µg/mL (≈ 0.0215 µM) | 1 µg/mL (≈ 1.44 µM) | 0.06 µg/mL (≈ 0.0861 µM) | 0.03 µg/mL (≈ 0.0431 µM) | 0.03 µg/mL (≈ 0.0431 µM) | 64 µg/mL (≈ 91.9 µM) | 0.03 µg/mL (≈ 0.0431 µM) | 32 µg/mL (≈ 45.9 µM) | 0.5 µg/mL (≈ 0.718 µM) | MIC (L1730 S. haemolyticus; Staphylococcus haemolyticus): 0.03 µg/mL (≈ 0.0431 µM); MIC (L145 C. albicans): > 512 µg/mL
CN[C@H](CC(C)C)C(=O)N[C@H]1C(=O)N[C@@H](CC(N)=O)C(=O)N[C@H]2C(=O)N[C@H]3C(=O)N[C@H](C(=O)N[C@H](C(=O)O)c4cc(O)cc(O)c4-c4cc3ccc4O)[C@H](O)c3ccc(c(Cl)c3)Oc3cc2cc(c3O[C@@H]2O[C@H](CO)[C@@H](O)[C@H](O)[C@H]2O[C@H]2C[C@](C)(N)[C@H](O)[C@H](C)O2)Oc2ccc(cc2Cl)[C@H]1O [Vancomycin, reference compound] | 1 µg/mL (≈ 0.69 µM) | 0.5 µg/mL (≈ 0.345 µM) | > 128 µg/mL | 2 µg/mL (≈ 1.38 µM) | 1 µg/mL (≈ 0.69 µM) | 0.5 µg/mL (≈ 0.345 µM) | 2 µg/mL (≈ 1.38 µM) | 1 µg/mL (≈ 0.69 µM) | > 128 µg/mL | 16 µg/mL (≈ 11 µM) | 1 µg/mL (≈ 0.69 µM) | 0.5 µg/mL (≈ 0.345 µM) | > 128 µg/mL | MIC (L1730 S. haemolyticus; L1730 S. haemolyticus, cation-adjusted Mueller Hinton Broth, 35°C, 18-24 hours): 0.5 µg/mL (≈ 0.345 µM); MIC (L1730 S. haemolyticus; Staphylococcus haemolyticus, L1730 S. haemolyticus, cation-adjusted Mueller Hinton Broth, 35°C, 18-24 hours): 1 µg/mL (≈ 0.69 µM); MIC [2]: 4 µg/mL (≈ 2.76 µM); MIC [3]: 1 µg/mL (≈ 0.69 µM); MIC [4]: 0.5 µg/mL (≈ 0.345 µM); MIC (L569 E. faecium VanA; L569 E. faecium VanA 30 % SB (30% bovine serum)): > 128 µg/mL; MIC [5]: > 128 µg/mL
